Results as given in article PMC11407620, “Repurposing auranofin and meclofenamic acid as energy-metabolism inhibitors and anti-cancer drugs” (PLOS ONE, 2024).
Several values for one entry are separate records, joined by “and”; a condition that tells them apart may be missing. Equal entries are not always repeated.

Experiments:
U373 glioblastoma cells = test: Cell invasiveness, Boyden chamber; assay type: cell-based, human; details: 0.6 μM Aur, 24 h
Description: (§1) The 96-multiwell Boyden chambers (Merck Millipore, MA, USA) assay was performed for cellular invasiveness detection. Cancer cells (5 × 10^4 cells/well) were re-suspended in free-serum DMEM and placed in the upper Boyden chamber compartment. Free-serum DMEM was also placed in the lower compartment of the chamber. Afterwards, the Boyden chamber was placed at 37°C and 95% air/5% CO2 for 24 h. Invasive cancer cells within the lower chamber compartment were detected by using the calcein-AM (60 nM, 1 h) assay at 37°C. Calcein-fluorescence was measured at λexcitation = 485 nm and λemission = 520 nm in a Nunclon microplate reader (Roskilde, Denmark).
(§2) The Aur concentration added was 1.7, 0.8, 2 and 0.6 μM for HeLa, MDA-MB-231, MDA-MB-468 and U373 cells, respectively. n = 3; *p < 0.05, **p<0.01 vs. Control (Non-treated cells).

[1] = system: HeLa, MDA-MB-231 and MDA-MB-468 cells; test: Cell invasiveness, Boyden chamber; assay type: cell-based, human; details: Aur at IC50 (1.7, 0.8, 2 μM); 24 h
Description: as §1, §2

[2] = system: ovarian cancer A2780 cells; design: method as in PMID 35358852; details: cited from earlier work
HeLa cells [3] = test: Glycolysis flux (lactate production) in intact cells; assay type: cell-based, human
Description: (§3) For glycolysis flux, cells (3 mg protein/mL) were incubated in KR buffer. Glycolysis was started by adding 5 mM external glucose (Sigma-Aldrich, MO, USA), and cellular samples were withdrawn after 0 and 10 min of incubation at 37°C under smooth orbital shaking. At the indicated times, the cells were rapidly mixed with 3% (w/v) ice-cold perchloric acid and centrifuged. The supernatants were neutralized with 1N KOH/100mM Tris. To rule out lactate production by glutaminolysis, cells were also incubated with 10 mM 2-deoxyglucose (Sigma-Aldrich, MO, USA). Lactate was determined by a standard method with lactate dehydrogenase (Roche, Mannheim, Germany) following the NADH formation at 340 nm.

MDA-MB-231 cells = test: as above; assay type: cell-based, human; details: +Aur 0.8 μM, 24 h
Description: as §3

[4] = design: method as in PMID 27821451, PMID 6411921; details: patients receiving oral Aur; after 24 h -7 d of treatment; cited from earlier work
[5] = design: method as in doi:10.1016/j.ccr.2017.02.015, PMID 36770718; details: cited from earlier work
Rat Heart Mitochondria = test: Oxygen consumption of isolated mitochondria; assay type: biochemical; details: 5 mM Glutamate/5 mM Malate
Description: Rat liver (RLM) and heart (RHM) mitochondria were isolated as described previously by differential centrifugation.
Respiration of AS-30D, liver and heart mitochondria (1 mg protein/mL) was assayed oxygraphically with a Clark-type O2 electrode in KME (120 mM KCl, 20 mM Mops, 1 mM EGTA) buffer pH 7.2 plus 2 mM KH2PO4, and different oxidizable substrates (as indicated in Results). For state 3 respiration, 600 nmol ADP were added. Mitochondria were incubated at 37°C with Aur and MA for 30–60 s before substrates were added. At the end of each respiratory measurement, dithionite was added to get the chemical zero oxygen signal.

HeLa cells [6] = test: Cell invasiveness, Boyden chamber; assay type: cell-based; details: Homo sapiens, MA 10 μM, 24 h
Description: as §1
S1 Figure. Cancer invasiveness assay in metastatic cancer cells exposed to MA (A) and perhexiline (B) for 24 h. All cancer cell invasiveness was compared with MDA-MB-231 cells, which are cancer cells with the highest invasiveness ability. n=3; *P < 0.05 vs. MDA-MB-231 non-treated cells.

MDA-MB-468 cells = test: OxPhos flux (oligomycin-sensitive respiration) in intact cells; assay type: cell-based, human; details: +MA 50 μM, 24 h
Description: For oxidative phosphorylation (OxPhos) flux, cells (2–5 mg protein/mL) were incubated at 37°C in air saturated KR medium plus 5 mM glucose. To distinguish the oxygen consumption associated to OxPhos, the cells were incubated with 5 μM oligomycin (Sigma-Aldrich, MO, USA), a potent, specific, and permeable inhibitor of the mitochondrial ATP synthase. The net OxPhos rate was determined by using a Clark type electrode, as previously described and by using a high-resolution respirometer (Oroboros Instruments, Innsbruck, Austria) at 37°C. The contribution of OxPhos and glycolysis to the cellular ATP supply was determined, respectively, from the net OxPhos rate (oligomycin-sensitive respiration) multiplied by the ATP/O or P»/O2 ratio that corresponds to 2.5 or 5, and from the rate of lactate production, assuming a stoichiometry of 1 mol of ATP produced per 1 mol of lactate produced.

SMILES | inhibition of cell invasiveness (U373 glioblastoma cells) [%] | inhibition of invasiveness [1] | inhibition of cancer cell total oxygen consumption [2] | Glycolysis flux (HeLa cells [3]; +Aur 1.7 μM, 24 h) | glycolytic flux inhibition (HeLa cells [3]; Aur alone (Table 2)) [%] | Glycolysis flux (MDA-MB-231 cells) | blood Aur levels [4] | stability in aqueous media [5] | Net State 3 oxygen consumption rate (Rat Heart Mitochondria; 10 μM MA) | Pseudo State 4 oxygen consumption rate (Rat Heart Mitochondria; 10 μM MA) | RC (Rat Heart Mitochondria; 10 μM MA) | State 3 oxygen consumption rate (Rat Heart Mitochondria; 10 μM MA) | State 4 oxygen consumption rate (Rat Heart Mitochondria; 10 μM MA) | Net State 3 oxygen consumption rate (Rat Heart Mitochondria; 50 μM MA) | Pseudo State 4 oxygen consumption rate (Rat Heart Mitochondria; 50 μM MA) | RC (Rat Heart Mitochondria; 50 μM MA) | State 3 oxygen consumption rate (Rat Heart Mitochondria; 50 μM MA) | State 4 oxygen consumption rate (Rat Heart Mitochondria; 50 μM MA) | inhibition at 10 µM (HeLa cells [6]) [%] | OxPhos flux (MDA-MB-468 cells)
CC(=O)OC[C@H]1O[C@@H]([S-])[C@H](OC(C)=O)[C@@H](OC(C)=O)[C@@H]1OC(C)=O.CCP(CC)CC.[Au+] [Aur, [1-(thio-κS)-β-D-glucopyranose-2,3,4,6-tetraacetyl] (triethylphosphine)-gold] | 75 | 45–80% | around 25% | 4 ± 3 (3) nmol lactate min^-1 mg protein^-1 | 75 | 3 ± 2 (3) nmol lactate min^-1 mg protein^-1 | 49–310 ng/mL and 0.1–0.6 μM | unstable |  |  |  |  |  |  |  |  |  |  |  | 
Cc1ccc(Cl)c(Nc2ccccc2C(=O)O)c1Cl [MA, Meclofenamic acid] |  |  |  |  |  |  |  |  | 48 ± 83 | 143 ± 42 (3) | 1.4 ±0.6 (3) | 177 ± 56 (3) | 126 ± 16 (3) | 12.5± 22 | 134 ± 9.5 (3) | 1 (3) | 139 ± 22 (3) | 139 ± 22 (3) | 65 | 4.8 ± 0.8 nmol O2 min^-1 mg protein^-1
